Results reported in patent US10392368B2, “Pyrazolo and triazolo bicyclic compounds as JAK kinase inhibitors” (THERAVANCE BIOPHARMA R&D IP, LLC, priority 2017, dated 2019).

What was measured:
[1] = test system: IL-2 stimulated pSTAT5 in Tall-1 T cells; experiment: Cellular JAK3 potency assay: inhibition of IL-2 stimulated pSTAT5 in Tall-1 T cells; type: cell-based, human; conditions: for Tall-1 (pIC50): IL-2 stimulated pSTAT5 in Tall-1 T cells; for IC50: Homo sapiens, TALL-1, IL-2 stimulated pSTAT5 in Tall-1 T cells, read-out: Tall-1 (pIC50) (converted)
Experimental: The potency of test compounds for inhibition of interleukin-2 (IL-2) stimulated STAT5 phosphorylation was measured in the Tall-1 human T cell line (DSMZ) using AlphaLisa. Because IL-2 signals through JAK3, this assay provides a measure of JAK3 cellular potency.
Compounds were serially diluted in DMSO and dispensed acoustically to empty wells. Assay media (phenol red-free DMEM (Life Technologies) supplemented with 10% FBS (ATCC)) was dispensed (4 μL/well) and plates shaken at 900 rpm for 10 mins. Cells were seeded at 45,000 cells/well in assay media (4 μL/well), and incubated at 37° C., 5% CO2 for 1 hour, followed by the addition of IL-2 (R&D Systems; final concentration 300 ng/ml) in pre-warmed assay media (4 μL) for 30 minutes. After cytokine stimulation, cells were lysed with 6 ul of 3× AlphaLisa Lysis Buffer (PerkinElmer) containing 1× PhosStop and Complete tablets (Roche). The lysate was shaken at 900 rpm for 10 minutes at room temperature (RT). Phosphorylated STAT5 was measured via the pSTAT5 AlphaLisa kit (PerkinElmer). Freshly prepared acceptor bead mixture was dispensed onto lysate (5 μL) under green filtered <100 lux light. Plates were shaken at 900 rpm for 2 mins, briefly spun down, and incubated for 2 hrs at RT in the dark. Donor beads were dispensed (5 μL) under green filtered <100 lux light. Plates were shaken at 900 rpm for 2 minutes, briefly spun down, and incubated overnight at RT in the dark.
To determine the inhibitory potency of test compounds in response to IL-2, the average emission intensity of beads bound to pSTAT5 was measured in a human T cell line. IC50 values were determined from analysis of the inhibition curves of signal intensity versus compound concentration. Data are expressed as pIC50 (negative decadic logarithm IC50) values (mean±standard deviation).

[2] = biological target: T1, JAK3 (Homo sapiens, UniProt P52333); experiment: Biochemical JAK3 kinase assay (LanthaScreen); design: GST; purchased Life Technologies; conditions: for JAK3 (pKi)-JAK1 (pKi): selectivity: difference of pKi JAK3 and pKi JAK1; for Ki: read-out: JAK 3 (pKi) (converted)
T1 sequence (P52333 1-1124): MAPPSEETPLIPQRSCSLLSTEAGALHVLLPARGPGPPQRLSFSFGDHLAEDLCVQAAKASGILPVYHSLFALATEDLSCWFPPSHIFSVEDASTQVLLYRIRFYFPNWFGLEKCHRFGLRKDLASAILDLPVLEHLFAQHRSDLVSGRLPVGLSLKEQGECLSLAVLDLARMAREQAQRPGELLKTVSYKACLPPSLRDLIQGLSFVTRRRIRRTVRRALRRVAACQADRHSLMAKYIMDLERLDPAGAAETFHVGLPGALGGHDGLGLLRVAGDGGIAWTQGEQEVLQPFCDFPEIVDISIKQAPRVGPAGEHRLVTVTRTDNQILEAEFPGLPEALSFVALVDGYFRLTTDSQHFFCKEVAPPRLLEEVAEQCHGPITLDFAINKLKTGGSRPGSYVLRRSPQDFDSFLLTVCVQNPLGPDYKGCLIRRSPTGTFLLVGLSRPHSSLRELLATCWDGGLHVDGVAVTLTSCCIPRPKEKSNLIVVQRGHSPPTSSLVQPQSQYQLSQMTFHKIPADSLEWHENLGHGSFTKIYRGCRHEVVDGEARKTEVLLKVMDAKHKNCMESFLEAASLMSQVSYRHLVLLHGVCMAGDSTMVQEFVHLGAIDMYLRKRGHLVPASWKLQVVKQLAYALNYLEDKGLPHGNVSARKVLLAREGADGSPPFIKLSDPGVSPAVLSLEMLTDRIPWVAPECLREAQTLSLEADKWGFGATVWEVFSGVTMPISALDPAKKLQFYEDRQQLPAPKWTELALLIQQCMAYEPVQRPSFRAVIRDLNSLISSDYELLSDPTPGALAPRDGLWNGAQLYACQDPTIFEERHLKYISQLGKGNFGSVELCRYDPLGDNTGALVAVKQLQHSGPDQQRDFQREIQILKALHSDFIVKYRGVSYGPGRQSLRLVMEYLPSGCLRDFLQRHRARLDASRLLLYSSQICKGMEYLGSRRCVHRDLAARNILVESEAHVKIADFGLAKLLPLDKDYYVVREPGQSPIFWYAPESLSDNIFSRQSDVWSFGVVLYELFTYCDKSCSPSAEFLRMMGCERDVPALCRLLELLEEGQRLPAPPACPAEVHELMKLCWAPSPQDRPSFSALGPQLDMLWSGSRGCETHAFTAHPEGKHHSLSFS
Experimental: (§1) A panel of four LanthaScreen JAK biochemical assays (JAK1, 2, 3 and Tyk2) were carried in a common kinase reaction buffer (50 mM HEPES, pH 7.5, 0.01% Brij-35, 10 mM MgCl2, and 1 mM EGTA). Recombinant GST-tagged JAK enzymes and a GFP-tagged STAT1 peptide substrate were obtained from Life Technologies.
(§2) Serially or discretely diluted compounds were pre-incubated with each of the four JAK enzymes and the substrate in white 384-well microplates (Corning) at ambient temperature for 1 h. ATP was subsequently added to initiate the kinase reactions in 10 μL total volume, with 1% DMSO. […] Kinase reactions were allowed to proceed for 1 hour at ambient temperature before a 10 μL preparation of EDTA (10 mM final concentration) and Tb-anti-pSTAT1 (pTyr701) antibody (Life Technologies, 2 nM final concentration) in TR-FRET dilution buffer (Life Technologies) was added. The plates were allowed to incubate at ambient temperature for 1 h before being read on the EnVision reader (Perkin Elmer). Emission ratio signals (520 nm/495 nm) were recorded and utilized to calculate the percent inhibition values based on DMSO and background controls.
(§3) For dose-response analysis, percent inhibition data were plotted vs. compound concentrations, and IC50 values were determined from a 4-parameter robust fit model with the Prism software (GraphPad Software). Results were expressed as pIC50 (negative logarithm of IC50) and subsequently converted to pKi (negative logarithm of dissociation constant, Ki) using the Cheng-Prusoff equation.

[3] = biological target: T2, JAK1 (Homo sapiens, UniProt P23458); experiment: Biochemical JAK1 kinase assay (LanthaScreen); conditions: for Ki: read-out: JAK 1 (pKi) (converted)
T2 construct: GST; purchased Life Technologies
Experimental: as §1, §2, §3

T2 sequence (P23458 whole entry): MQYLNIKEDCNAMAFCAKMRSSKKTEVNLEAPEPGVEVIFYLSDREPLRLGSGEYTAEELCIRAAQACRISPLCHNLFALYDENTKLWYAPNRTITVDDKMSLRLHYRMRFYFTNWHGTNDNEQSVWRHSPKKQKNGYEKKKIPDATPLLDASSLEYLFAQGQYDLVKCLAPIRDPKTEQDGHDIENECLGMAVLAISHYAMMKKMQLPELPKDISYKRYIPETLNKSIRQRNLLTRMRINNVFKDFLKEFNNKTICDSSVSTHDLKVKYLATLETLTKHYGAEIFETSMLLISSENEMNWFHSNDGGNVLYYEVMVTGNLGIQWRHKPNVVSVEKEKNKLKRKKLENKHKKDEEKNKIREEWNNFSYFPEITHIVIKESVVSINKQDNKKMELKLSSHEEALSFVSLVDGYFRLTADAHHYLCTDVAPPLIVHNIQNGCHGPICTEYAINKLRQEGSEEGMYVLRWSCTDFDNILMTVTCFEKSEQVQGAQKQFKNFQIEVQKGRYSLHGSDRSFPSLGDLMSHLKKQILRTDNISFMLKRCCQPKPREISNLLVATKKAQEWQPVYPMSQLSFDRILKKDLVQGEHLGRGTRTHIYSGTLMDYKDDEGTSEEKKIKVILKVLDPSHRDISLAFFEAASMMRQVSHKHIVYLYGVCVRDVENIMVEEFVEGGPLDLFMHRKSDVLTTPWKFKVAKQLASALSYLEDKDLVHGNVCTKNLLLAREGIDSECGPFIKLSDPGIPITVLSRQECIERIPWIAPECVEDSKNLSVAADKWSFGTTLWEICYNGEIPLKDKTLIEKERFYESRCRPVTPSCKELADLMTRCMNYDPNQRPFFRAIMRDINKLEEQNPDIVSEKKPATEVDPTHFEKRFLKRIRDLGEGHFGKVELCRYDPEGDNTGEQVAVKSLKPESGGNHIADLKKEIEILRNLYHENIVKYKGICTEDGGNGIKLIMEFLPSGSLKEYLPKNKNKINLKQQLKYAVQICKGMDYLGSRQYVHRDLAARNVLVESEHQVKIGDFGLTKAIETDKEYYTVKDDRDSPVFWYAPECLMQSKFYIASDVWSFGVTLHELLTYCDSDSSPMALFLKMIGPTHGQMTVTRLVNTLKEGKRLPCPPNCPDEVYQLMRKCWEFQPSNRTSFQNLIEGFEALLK

Row | SMILES | Tall-1 (pIC50) [1] | JAK 3 (pKi) [2] | JAK3 (pKi)-JAK1 (pKi) [2] | JAK 1 (pKi) [3] | IC50 [1] [µM] | Ki [2] [µM] | Ki [3] [µM]
1 | CN(C)C/C=C/C(=O)N1CC[C@H](COc2cc(-c3ccc(O)c(F)c3)cc3[nH]ncc23)C1 [Compound 2-4] | C (a pIC50 value between 6 and 6.7 (IC50 between 1 μM and 200 nM)) | B (a pKi value between 9 and 10 (Ki between 1 nM and 0.1 nM)) | B (a value of 2.3 to 3) | E (a pKi value of 7 or below (Ki of 100 nM or above)) |  |  | 
2 | C=CC(=O)N1CC[C@H](COc2cc(-c3ccc(O)cc3)nc3[nH]ncc23)C1 [Compound 2-6] | C (a pIC50 value between 6 and 6.7 (IC50 between 1 μM and 200 nM)) | A (a pKi value≥10 (Ki≤0.1 nM)) | A (a value of 3 or above) | E (a pKi value of 7 or below (Ki of 100 nM or above)) |  |  | 
3 | C=CC(=O)N1CC[C@H](COc2nc(-c3ccc(O)cc3)nc3[nH]ncc23)C1 [Compound 2-7] | B (a pIC50 value between 6.7 (included) and 7.5 (IC50 between 200 nM and 32 nM)) | B (a pKi value between 9 and 10 (Ki between 1 nM and 0.1 nM)) | A (a value of 3 or above) | E (a pKi value of 7 or below (Ki of 100 nM or above)) |  |  | 
4 | CN(C)C/C=C/C(=O)N1CC[C@H](COc2nc(-c3ccc(O)c(Cl)c3)cc3[nH]ncc23)C1 [Compound 2-9] | B (a pIC50 value between 6.7 (included) and 7.5 (IC50 between 200 nM and 32 nM)) | B (a pKi value between 9 and 10 (Ki between 1 nM and 0.1 nM)) | B (a value of 2.3 to 3) | E (a pKi value of 7 or below (Ki of 100 nM or above)) |  |  | 
5 | CN(C)C/C=C/C(=O)N1CC[C@H](COc2nc(-c3ccc(O)c(F)c3)cc3[nH]ncc23)C1 [Compound 2-13] | C (a pIC50 value between 6 and 6.7 (IC50 between 1 μM and 200 nM)) | B (a pKi value between 9 and 10 (Ki between 1 nM and 0.1 nM)) | B (a value of 2.3 to 3) | E (a pKi value of 7 or below (Ki of 100 nM or above)) |  |  | 
6 | C=CC(=O)N1CC[C@H](COc2nc(-c3ccc(O)c(Cl)c3)cc3[nH]ncc23)C1 [Compound 2-14] | A (a pIC50 value≥7.5 (IC50≤32 nM)) | A (a pKi value≥10 (Ki≤0.1 nM)) | A (a value of 3 or above) | E (a pKi value of 7 or below (Ki of 100 nM or above)) |  |  | 
7 | C=CC(=O)N1CC[C@H](COc2cc(-c3ccc(O)c(Cl)c3)nc3[nH]ncc23)C1 [Compound 2-16] | C (a pIC50 value between 6 and 6.7 (IC50 between 1 μM and 200 nM)) | B (a pKi value between 9 and 10 (Ki between 1 nM and 0.1 nM)) | A (a value of 3 or above) | E (a pKi value of 7 or below (Ki of 100 nM or above)) |  |  | 
8 | C=CC(=O)N1CC(F)(COc2cc(-c3ccc(O)cc3)cc3[nH]ncc23)C1 [Compound 3-6] |  |  | A (a value of 3 or above) |  | < 0.0316 | < 0.0001 | 0.01 to 0.1
9 | CN(C)C/C=C/C(=O)N1CC(C)(COc2cc(-c3ccc(O)c(Cl)c3)cc3[nH]ncc23)C1 [Compound 3-9] |  |  | B (a value of 2.3 to 3) |  | 0.0316 to 0.2 | 0.0001 to 0.001 | > 0.1
10 | C=CC(=O)N1CC(C)(COc2cc(-c3ccc(O)c(Cl)c3)cc3[nH]ncc23)C1 [Compound 3-10] | A (a pIC50 value≥7.5 (IC50≤32 nM)) | B (a pKi value between 9 and 10 (Ki between 1 nM and 0.1 nM)) | A (a value of 3 or above) | E (a pKi value of 7 or below (Ki of 100 nM or above)) |  |  | 
11 | C=CC(=O)N1CC(C)(COc2cc(-c3ccc(O)c(F)c3)cc3[nH]ncc23)C1 [Compound 3-12] |  |  | B (a value of 2.3 to 3) |  | 0.0316 to 0.2 | 0.0001 to 0.001 | > 0.1
12 | C=CC(=O)N1CC(CC)(COc2cc(-c3ccc(O)cc3)cc3[nH]ncc23)C1 [Compound 3-14] | B (a pIC50 value between 6.7 (included) and 7.5 (IC50 between 200 nM and 32 nM)) | B (a pKi value between 9 and 10 (Ki between 1 nM and 0.1 nM)) | A (a value of 3 or above) | E (a pKi value of 7 or below (Ki of 100 nM or above)) |  |  | 
13 | C=CC(=O)N1CC(CC)(COc2cc(-c3ccc(O)c(Cl)c3)cc3[nH]ncc23)C1 [Compound 3-16] | B (a pIC50 value between 6.7 (included) and 7.5 (IC50 between 200 nM and 32 nM)) | A (a pKi value≥10 (Ki≤0.1 nM)) | A (a value of 3 or above) | E (a pKi value of 7 or below (Ki of 100 nM or above)) |  |  | 
14 | C=CC(=O)N1CC(CC)(COc2cc(-c3ccc(O)c(F)c3)cc3[nH]ncc23)C1 [Compound 3-18] | B (a pIC50 value between 6.7 (included) and 7.5 (IC50 between 200 nM and 32 nM)) | A (a pKi value≥10 (Ki≤0.1 nM)) | A (a value of 3 or above) | E (a pKi value of 7 or below (Ki of 100 nM or above)) |  |  | 
15 | C=CC(=O)N1CC(C(C)(C)Oc2cc(-c3ccc(O)cc3)cc3[nH]ncc23)C1 [Compound 3-25] | B (a pIC50 value between 6.7 (included) and 7.5 (IC50 between 200 nM and 32 nM)) | C (a pKi value between 8 and 9 (Ki between 10 nM and 1 nM)) | B (a value of 2.3 to 3) | E (a pKi value of 7 or below (Ki of 100 nM or above)) |  |  | 
16 | C=CC(=O)N1CC(C(C)(C)Oc2cc(-c3ccc(O)c(Cl)c3)cc3[nH]ncc23)C1 [Compound 3-26] | B (a pIC50 value between 6.7 (included) and 7.5 (IC50 between 200 nM and 32 nM)) | B (a pKi value between 9 and 10 (Ki between 1 nM and 0.1 nM)) | A (a value of 3 or above) | E (a pKi value of 7 or below (Ki of 100 nM or above)) |  |  | 
